{"source": "patent US20250110116A1", "about": "“COMPOSITIONS AND METHODS FOR PRODUCING HAIR FOLLICLE STEM CELLS” (The Rockefeller University, priority 2023, published 2025)", "key": {"cultured HFSCs [1]": {"system": "cultured HFSCs", "test": "Rspo/WNT-mediated HFSC activation in culture (TCF/LEF, Lgr5, EdU)", "format": "cell-based, mouse", "source_text": "In vitro, none of the four WNT-regulating TCF/LEF transcription factors were expressed under standard serum conditions or in serum-free conditions, even with PKCi. […] These HFSC-associated TFs were also stimulated by BMP6, consistent with a raised threshold for activating WNT during quiescence (FIG. 10, Panels A and B). […] Rspo-mediated HFSC proliferation was sensitive to atRA with the greatest cooperative effect seen at 10-fold higher the atRA concentration that had been optimal for quiescence-related features of stemness (FIG. 2 Panel E, FIG. 10 Panel D).\n(§1) ERKi was also excluded because of its known ability to regulate the initiation of hair growth. Both atRA (10 nM-1 μM) and PKCi (0.1-10 μM) were titrated to determine the optimal concentration to reduce lineage plasticity and promote physiological HFSC behavior. […] In contrast, BMP6-mediated Nfatc1 mRNA upregulation (quiescence marker) was maximal at 10 nM. Therefore, the amount of atRA should be modified in HFSC cultures to support the desired cell fate in combination with these and possibly other growth factors."}, "Klf5-EGFP": {"system": "Klf5-EGFP", "test": "Klf5-EGFP lineage plasticity reporter in 3D cultured HFSCs (flow cytometry)", "format": "cell-based, mouse"}, "hair follicle": {"system": "hair follicle", "test": "Topical treatment of mouse back skin at mid-anagen (HF downgrowth)"}, "cultured HFSCs [2]": {"system": "cultured HFSCs", "test": "HFSC quiescence / bulge identity in culture (Nfatc1, Cxcl14 reporter)", "format": "cell-based, mouse", "source_text": "In vivo, HFSCs can be divided into two populations: those in a more quiescent state found in the bulge and ones primed for activation, located in the ‘hair germ’ (HG) just below the bulge. As BMP6 is produced by the inner bulge and responsible for maintaining HFSCs in their quiescent state (FIG. 2 Panel A), we continued to utilize a described culture system by assessing how these factors impact HFSC activation and fate commitment.\nBMPs triggered cell cycle exit (FIG. 9 Panel A).\nas §1"}, "cultured HFSCs [3]": {"system": "cultured HFSCs", "test": "Marker expression in cultured HFSCs (immunofluorescence, immunoblot, qPCR)", "format": "cell-based, mouse", "source_text": "We first explored these two hits against the backdrop of our more physiological (serum-free) conditions, where SOX9 and KLF5 had already partitioned their expression peripherally and internally within colonies, respectively (FIG. 1 Panel C).\nImmunoblot, qPCR and additional immunofluorescence analyses strengthened the evidence that PKCi and atRA resolve lineage plasticity (FIG. 1 Panel D, FIG. S2, Panels C to E)."}, "HFSCs [4]": {"system": "HFSCs", "test": "Wound repair with lineage-traced HFSCs, topical treatment", "format": "in vivo, mice", "source_text": "The recruitment of HFSCs to epidermal repair is a multistep process, involving first the entry of HFSCs into a lineage plasticity state, second the fate switch to an epidermal fate and then later, the rebalancing of stem cell numbers across tissue compartments. Given the need for atRA to drive hair lineage determination, we analyzed whether elevating atRA after injury might diminish the ability of HFSCs to enter a state of lineage plasticity after wounding. To test this, we administered topical atRA immediately after wounding to telogen-phase, lineage marked HFSCs. While entry into the hair cycle proceeded normally after injury, topical atRA led to a stem cell imbalance (FIG. 5 Panel D).\nTo assess the consequences of promoting lineage plasticity following injury, we placed mice on a vitamin A-deficient diet that depleted the skin of retinol without affecting body mass (FIG. 15 Panel E). In this case, following tissue injury, mobilized HFSCs entered a prolonged stated of dual lineage potential well into the later stages of repair (FIG. 5 Panel D). […] By day 30, vitamin A deficiency also elevated the fraction of stem cells that contributed to the repaired epidermis and diminished the number remaining in the bulge."}, "HFSCs [5]": {"system": "HFSCs", "test": "Transplantation of precultured HFSCs with dermal fibroblasts onto mouse back skins", "format": "in vivo", "settings": "HFSCs precultured in serum-free media primed with either atRA, BMP6 or Rspo", "source_text": "By overcoming the hurdles to lineage progression in vitro, we challenged the in vivo regenerative potential of the described lineage-specified cell populations. YFP-labeled progenitors from each group were combined with allogenic dermal fibroblasts and transplanted onto mouse back skins."}, "CD34^+ HFSCs": {"system": "CD34^+ HFSCs", "test": "Topical treatment of mouse back skin during resting phase of the hair cycle", "format": "in vivo, mice", "settings": "telogen"}, "human keratinocytes": {"system": "human keratinocytes", "test": "Human keratinocyte culture under the described conditions, 7 days", "format": "cell-based", "settings": "atRA plus PKCi added to B-27 media", "source_text": "This example relates to FIG. 21. With respect to FIG. 21, to assess the translatability of the described methodology enabling the faithful recapitulation of hair follicle stem cell (HFSC) identity in culture to humans, we introduced the described conditions developed in the mouse to human keratinocytes."}, "[6]": {"settings": "daily topical during HF downgrowth"}}, "note": "Entries after “also recorded” stand apart in the source; their conditions may differ. Where two headings read alike, the source gives them in different places."}
{"smiles": "CC1=C(/C=C/C(C)=C/C=C/C(C)=C/C(=O)O)C(C)(C)CCC1", "note": "[atRA, all-trans-retinoic acid]", "values": [{"measurement": "Tcf7l1 (TCF3) and Tcf7l2 (TCF4) expression", "setting": "cultured HFSCs [1]", "result": "promoted expression"}, {"measurement": "Sox9 and Rspo-mediated Lgr5 upregulation", "setting": "cultured HFSCs [1]; compared among physiological vitamin A derivatives", "result": "greatest effect on Sox9 and Rspo-mediated Lgr5 upregulation"}, {"measurement": "atRA concentration at which Lgr5 mRNA upregulation and EdU incorporation were optimized", "setting": "cultured HFSCs [1]; with Rspo", "result": 100, "unit": "nM"}, {"measurement": "atRA concentration for greatest cooperative effect on Rspo-mediated HFSC proliferation relative to concentration optimal for quiescence", "setting": "cultured HFSCs [1]; with Rspo", "result": 10, "unit": "fold"}, {"measurement": "reduction of Klf5-EGFP levels", "setting": "Klf5-EGFP; atRA and PKCi tested in combination", "result": "most effective at reducing Klf5-EGFP levels"}, {"measurement": "effect on lineage plasticity (Klf5-EGFP levels)", "setting": "Klf5-EGFP; screen of small molecule library, serum-free 3D culture", "result": "effective at reducing lineage plasticity without affecting proliferation; also recorded: particularly effective agents impacting lineage plasticity"}, {"measurement": "TAC differentiation", "setting": "hair follicle; [6]", "result": "prevented TAC differentiation"}, {"measurement": "hair regrowth", "setting": "hair follicle; [6]", "result": "prevented hair regrowth"}, {"measurement": "proportion of HOXC13^+ to GATA3^+ cells", "setting": "hair follicle; topical, mid-anagen", "result": "reduced the relative proportion of HOXC13^+ to GATA3^+ cells"}, {"measurement": "size of the hair bulb", "setting": "hair follicle; topical, mid-anagen", "result": "substantially reduced the size of the hair bulb overall"}, {"measurement": "bulge HFSC identity (Nfatc1, Cxcl14-EGFP reporter)", "setting": "cultured HFSCs [2]", "result": "dose-dependent boost in bulge HFSC identity, optimal at low concentration"}, {"measurement": "bulge HFSC identity (Nfatc1, Cxcl14-EGFP reporter)", "setting": "cultured HFSCs [2]; listed as RA", "result": "increased"}, {"measurement": "atRA concentration at which BMP6-mediated Nfatc1 mRNA upregulation was maximal", "setting": "cultured HFSCs [2]; with BMP6", "result": 10, "unit": "nM"}, {"measurement": "Nfib and Tbx1 expression", "setting": "cultured HFSCs [3]", "result": "restored Nfib and Tbx1 expression"}, {"measurement": "epidermal markers Sca1 and KRT10", "setting": "cultured HFSCs [3]", "result": "suppressed epidermal markers"}, {"measurement": "Sox9 mRNA levels", "setting": "cultured HFSCs [3]; atRA titrated 10 nM-1 μM", "result": "increased Sox9 mRNA levels in a dose-dependent manner"}, {"measurement": "resolution of lineage plasticity and HFSC behavior", "setting": "cultured HFSCs [3]; combination of atRA and PKCi, 3D culture", "result": "optimally resolved lineage plasticity and favored HFSC behavior"}, {"measurement": "KLF5 expression", "setting": "cultured HFSCs [3]; serum-free conditions", "result": "not as effective in reducing KLF5"}, {"measurement": "SOX9 population", "setting": "cultured HFSCs [3]; serum-free conditions", "result": "markedly expanded the SOX9 population"}, {"measurement": "HFSC lineage plasticity state during wound repair", "setting": "HFSCs [4]; topical after wounding", "result": "Fewer HFSCs entered the lineage plasticity state"}, {"measurement": "restoration of skin barrier (transepidermal water loss, TEWL)", "setting": "HFSCs [4]; topical after wounding", "result": "clear delay in restoring the skin's barrier"}, {"measurement": "HFSC lineage plasticity state during wound repair", "setting": "HFSCs [4]; topical after wounding, listed as RA", "result": "accelerated lineage plasticity resolution"}, {"measurement": "hair regeneration and HFSC fate in vitamin A-deficient mice", "setting": "HFSCs [4]; topical to wound bed, vitamin A-deficient diet", "result": "all of these features were rescued"}, {"measurement": "hair production upon engraftment", "setting": "HFSCs [5]", "result": "efficiently produced hair"}, {"measurement": "hair cycle (anagen) entry", "setting": "CD34^+ HFSCs", "result": "facilitated hair cycle entry"}, {"measurement": "hair cycle (anagen) entry", "setting": "CD34^+ HFSCs; listed as RA", "result": "accelerated the onset of anagen entry"}, {"measurement": "KLF5 expression", "setting": "human keratinocytes", "result": "further suppressed KLF5 expression in both basal and suprabasal layers"}, {"measurement": "SOX9 levels", "setting": "human keratinocytes", "result": "upregulated SOX9 levels"}, {"measurement": "keratin profile (KRT10, KRT6, KRT15)", "setting": "human keratinocytes", "result": "reductions in KRT10 and KRT6; also recorded: upregulation of KRT15"}]}
